Columns and labels:
[1] = test system: RPMI8226; assay: MTT antiproliferative assay, RPMI8226; assay type: cell-based; details: Homo sapiens, RPMI-8226, 72 hours
Method: Cell viability was monitored by the MTT (3-(4,5-dimethylthiazol-2-yl)-2,5-diphenyltetrazolium bromide) assay. For the MTT assay, cells were suspended at 5 × 10^5 cells/ml, and 100 μl aliquots were dispended into 96-well microtiter plates and exposed to drugs as described using DMSO control. At the end of incubations, 10 μl of a stock solution of 5 mg/ml MTT (3-(4,5-dimethylthiazol-2-yl)-2,5-diphenyltetrazolium bromide), was added into each well, and the plates were incubated 4 hours at 37 °C. Formazan crystals were dissolved with 100 μl of 10% SDS/10 mM HCl solution overnight at 37 °C. Since MTT assays are affected by mitochondrial activity, and since OXPHOS is affected by VLX1570 (unpublished observation), we used the acid phosphatase method[49] to determine cell viability in some experiments. After washing twice with PBS, cells were lysed in 100 μl of 0.1 M sodium acetate, 0,1% Triton X-100, p-nitrophenylphosphate (Pierce Biotechnology Inc, Rockford, IL) and incubated for 90 min at 37 °C. At the end of the incubation, 10 μl NaOH was added to each well and A405 was determined.

[2] = test system: 26S proteasome and immunoproteasome; assay: Proteasome and immunoproteasome proteolytic activity in OPM-2 cells; assay type: cell-based, human; details: 0.5 μM, 3 hours
[3] = test system: RPMI8226 tumors; assay: Subcutaneous RPMI8226 multiple myeloma model in mice; assay type: in vivo
Method: Tissue sections were deparaffinized with xylene, rehydrated and microwaved and then incubated with primary antibodies diluted in 1% (wt/vol) BSA and visualized by standard avidin–biotin–peroxidase complex technique (Vector Laboratories, Burlingame, CA, USA). Counterstaining was performed with Mayer’s haematoxylin. Slides were mounted in Vectashield containing DAPI and images recorded in a Zeiss Axioplan 2 fluorescence microscope. Antibodies: KI67 Dako #M7240 (1:100)(using Rodent Block (Biocare-RBM961) and Envision Plus anti-mouse labeled polymer (Dako K4001); Ub-K48 (Millipore-05-1307) (1:100) (serum free Protein block (Dako-X0909)) and Envision + anti-rabbit labeled polymer (Dako-K4003); CXCR4 (Sigma-C3116) (1:400) (Dako-X0909) and Envision + anti-rabbit labeled polymer (Dako-K4003); cleaved casapse-3 (Cell Signaling-9664) (1:100) (Dako-X0909) and Envision + anti-rabbit labeled polymer (Dako-K4003).
Two different multiple myeloma models were used. Experimental protocols and methods were performed by Accelera (Nerviano, Italy) in accordance with guidelines and with permission from the local ethics committee (Nerviano Medical Sciences (NMS) Ethic Committee). All experimental protocols were approved by the Nerviano Medical Sciences (NMS) Ethic Committee. Study director was Marina Ciomei. SCID female mice were obtained from Charles River, Italy. Body weights at the day of tumor implant were between 19 and 22 grams. Treatment started at day 7 after injection of tumor cells and continued for 10 consequtive days. Mice were monitored daily for mortality and clinical signs. In the KMS-11 model, antitumor efficacy was evaluated in terms of survival increase respect to control. In the RPMI8226 model, the growth of subcutaneous tumors was recorded. For imaging, mice were injected intraperitoneally with 150 mg/kg d-luciferin (Promega) followed by anesthetization in 2–3% isoflurane atmosphere. After 10–12 minutes of biodistribution time, mice were imaged using a charge coupled device (CCD camera, Xenogen IVIS Lumina System) to evaluate the bioluminescence in the animal. Nose-cone isoflurane delivery system and heated stage for maintaining body temperature were used. A gray-scale image of the mice was captured, followed by an overlay of a bioluminescence map representing the spatial distribution of photons detected from cleaved luciferin in the cancer cells expressing luciferase. Signal intensity was quantified using a customized version of the IGOR Pro version 4.09A Software (WaveMetrics, Inc., Lake Oswego, OR) called Living Image version 3.00 (Xenogen). Photon emission was measured as whole-body radiance and the individual regions of interest (ROIs) were manually selected. Data were expressed as photon/second/cm^2/steradian.

[4] = test system: proteasome DUB activity; design: method as in PMID 25854145; details: competitive inhibitor; read-out: IC50, inhibition of proteasome DUB activity in vitro; cited from earlier work
[5] = design: method as in PMID 25854145; details: cited from earlier work
[6] = biological target: USP14 (Homo sapiens, UniProt P54578); assay: HA-Ub-VS active-site labeling of purified 19S, USP14; assay type: biochemical; design: purchased Boston Biochem E-366; details: purified 19S RP; 2.5 μM
Method: (§1) Cell extract proteins were resolved by Tris-Acetate PAGE gels (Invitrogen, Carlsbad, CA) and transferred onto a polyvinylidene difluoride (PVDF) membrane for western blotting. For Ub-VS labeling, we lysed cell pellets from control or treated cells with buffer (50 mM HEPES pH 7.4, 250 mM sucrose, 10 mM MgCl2, 2 mM ATP, 1 mM DTT and 1%NP-40) on ice for 30 min and removed debris by centrifugation. We labeled 25 μg of protein with 1 μM Ub-VS for 30 min at 37 °C. We resolved samples by SDS-PAGE and performed immunoblotting. For HA-Ub-VS labeling, we pretreated purified 19S (5 nM) with DMSO or 2.5, 5, 10, 15 or 25μM 1570 for 10 min at room temperature, which followed with labeling with 1 μM HA-Ub-VS for 30 min at 37 °C and immunoblotting.

[7] = biological target: T1, UCHL5 (Homo sapiens, UniProt Q9Y5K5); assay: Ub-VS labeling of lysates of exposed OPM-2 cells, UCHL5; assay type: cell-based; design: endogenous in cells; host or cells: OPM-2 multiple myeloma cells; details: 0.5 μM, 3 hours
T1 sequence (Q9Y5K5 1-329): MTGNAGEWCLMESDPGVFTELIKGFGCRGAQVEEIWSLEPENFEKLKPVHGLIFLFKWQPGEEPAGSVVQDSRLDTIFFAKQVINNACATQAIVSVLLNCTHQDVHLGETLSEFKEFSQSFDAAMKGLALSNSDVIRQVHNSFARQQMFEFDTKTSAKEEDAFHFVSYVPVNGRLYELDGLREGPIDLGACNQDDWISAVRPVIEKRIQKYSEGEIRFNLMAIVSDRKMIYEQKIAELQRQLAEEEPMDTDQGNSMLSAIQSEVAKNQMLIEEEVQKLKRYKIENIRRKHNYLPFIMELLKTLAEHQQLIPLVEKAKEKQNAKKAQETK
Method: as §1

## C=CC(=O)N1CC/C(=C\c2ccc(F)c([N+](=O)[O-])c2)C(=O)/C(=C/c2ccc(F)c([N+](=O)[O-])c2)C1 [VLX1570]
[1]
  IC50: 0.074 ± 0.002 µM
[2]
  chymotryptic, tryptic and caspase-like activity of 26S proteasome and chymotryptic activity of immunoproteasome: no change
[3]; 3 mg/kg, 10 consecutive days, subcutaneous RPMI8226
  tumor growth: significant decrease in tumor growth
[3]; RPMI8226 tumors, 3 mg/kg
  CXCR4 staining in tumors (immunohistochemistry): decreased CXCR4 staining
  K48-linked ubiquitin chains in tumors: increases in K48-linked ubiquitin chains
  active caspase-3 in tumors: increased active caspase-3
[3]; after exposure of mice
  ERK phosphorylation in RPMI8226 cells in vivo: decreased ERK phosphorylation
[4]
  IC50: ~10 µM
[5]
  solubility compared to b-AP15: improved solubility
[6]
  inhibition of USP14 activity (Ub-VS labeling): strongly inhibited
[7]
  UCHL5 inhibition in exposed cells: weak in comparison

From article PMC4893612 (Scientific Reports, 2016)
